Several values for one entry are separate records, joined by “and”; a condition that tells them apart may be missing. Identical values can stand only once. Like-named read-outs stand apart in the source and are kept apart here.
How the values were obtained:
[1] = target: T1, LACV EndoN (Bunyavirus La Crosse, UniProt A5HC98); assay: In vitro endonuclease FRET assay; format: biochemical, La Crosse virus; conditions: for fold greater inhibition efficiency than DPBA: ratio of IC50 values versus DPBA
Protocol: An in vitro endonuclease assay was used to investigate the inhibition of LACV EndoN by DPBA, L-742,001 and baloxavir. The reaction was conducted using a 20 µl sample in 20 mM Tris pH 7.6, 150 mM NaCl, 0.01% Tween 20, 1 mM DTT and was supplemented with 1 mM freshly prepared MnCl2. The 19-mer RNA at a concentration of 50 nM and a gradient concentration of inhibitor (from 0.004 to 100 µM) were pre-incubated at 25°C in the reaction buffer. The reaction was started upon the addition of LACV EndoN (pre-mixed with 1 mM MnCl2 and pre-incubated at 25°C for 5 min) at a final concentration of 0.25 µM. Fluorescence upon RNA cleavage was followed in a PHERAstar FSX microplate reader (BMG Labtech, Germany) at 25°C using wavelengths of 465 nm for excitation and 520 nm for emission.
The inhibition efficacies of the three ligands were tested against LACV EndoN in an endonuclease FRET assay and the results are summarized in Table 2 ▸. This was performed following the cleavage of a 19-mer RNA labelled with a 5′ fluorescent probe (6-FAM) and a 3′ quencher (BHQ1) in the presence of a range of ligand concentrations upon the addition of 0.25 µM LACV EndoN. In this FRET inhibition assay, the order in which the three partners of the catalytic complex (protein, ions and substrate RNA) are introduced is decisive. The reaction is triggered by adding the protein pre-incubated with ions to a mixture containing substrate RNA, ions and ligand. The design of the assay may constitute a limitation to the complete assessment of the binding efficiency of baloxavir to the enzyme, given the competition between substrate RNA, free ions and ligand. As described for FLUV, baloxavir is a tight-binding inhibitor with slow dissociation and acts by preventing binding of the RNA substrate (Omoto et al., 2018[▸]; Todd et al., 2021[▸]). In the context of the current biochemical assay, the interplay between the RNA substrate and the ligand presents an unfavourable scenario for binding of the metal-chelating ligand. […] This unexpected uniformity of the inhibition values underscores the remarkable potency of these compounds in the face of a challenging biochemical landscape.
Target sequence in this assay (A5HC98 1-185): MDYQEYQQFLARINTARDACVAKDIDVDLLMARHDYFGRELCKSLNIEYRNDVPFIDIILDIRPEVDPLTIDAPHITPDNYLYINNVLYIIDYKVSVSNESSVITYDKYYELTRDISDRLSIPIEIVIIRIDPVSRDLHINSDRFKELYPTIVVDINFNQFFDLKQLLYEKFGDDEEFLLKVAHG

[2] = target: T1, LACV EndoN; assay: Microscale thermophoresis (MST) binding affinity; set-up: species or system La Crosse virus; conditions: for Kd: Affinity K d, labelled protein 50 or 100 nM, 0.5 mM MnCl2, 5% DMSO, n = 3; for fold better affinity than DPBA: ratio of K d values versus DPBA
Target sequence in this assay (A5HC98 1-185): as above

[3] = target: FLUV PA-Nter; set-up: method as in DuBois et al., 2012; conditions: ref DuBois et al., 2012; cited from earlier work
[4] = target: LCMV EndoN; conditions: ref Saez-Ayala et al., 2018, 2019; cited from earlier work
[5] = target: T1, LACV EndoN; format: binding, La Crosse virus; conditions: for Stability ΔT m: 50 µM compound, 5 µM protein, baseline LACV EndoN in the presence of manganese (T m ≃ 56°C); for greater stabilization compared with DPBA: difference in ΔT m versus DPBA, with 0.5 mM MnCl2
Protocol: The influence of compound binding on the stability of LACV EndoN was measured by a Thermofluor assay using a CFX Connect Bio-Rad real-time PCR machine at a protein concentration of 5 µM in a buffer consisting of 20 mM Tris–HCl pH 7.6, 150 mM NaCl, 2.5 mM β-mercaptoethanol supplemented with 0.5 mM freshly prepared MnCl2. The compound concentration was fixed at 50 µM (5% DMSO). In 96-well thin-walled PCR plates, 1 µl inhibitor was added to 17 µl buffer followed by the addition of 2 µl protein. Finally, 2 µl of the fluorescent dye SYPRO Orange (Thermo Fisher, catalog No. 4461146) was added (a fivefold final concentration). Controls were performed using the same protocol without MnCl2. The melting-temperature (T m) values given are the average and standard deviation of three independent experiments.
DSF is used to assess protein stabilization or destabilization upon the addition of cofactors by measuring the thermal stability (the thermal melting transition T m) arising from interaction with a fluorescent dye (SYPRO Orange) during denaturation.
(c) Structures of the studied ligands.
Target sequence in this assay (A5HC98 1-183): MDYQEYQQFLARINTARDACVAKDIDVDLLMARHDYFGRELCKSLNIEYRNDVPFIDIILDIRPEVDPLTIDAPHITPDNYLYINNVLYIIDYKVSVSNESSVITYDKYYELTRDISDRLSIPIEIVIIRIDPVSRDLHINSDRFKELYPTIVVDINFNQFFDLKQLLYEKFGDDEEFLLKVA

Row | Structure (SMILES) | IC50 [1] [µM] | Kd [2] | Kd [3] [µM] | Kd [4] [µM] | T m increase upon addition of metal ions ([5]; 0.5 mM MnCl2, versus LACV EndoN without ions (T m of 49°C)) [°C] | fold greater inhibition efficiency than DPBA [1] | Stability ΔT m ([5]; 0.5 mM MnCl2) | Stability ΔT m ([5]; 0.5 mM MnCl2, listed as baloxavir) [°C] | greater stabilization compared with DPBA [5] | fold better affinity than DPBA [2]
1 | O=C(O)C(=O)CC(=O)c1ccccc1 [DPBA, 2,4-Dioxo-4-phenylbutanoic acid] | 0.99 ± 0.06 | 1.35 ± 0.25 µM | 4.5 | 5.4 |  |  |  |  |  | 
2 | [Cl][Mn][Cl] [MnCl2] |  |  |  |  | ~7 |  |  |  |  | 
3 | O=C1c2c(O)c(=O)ccn2N([C@@H]2c3ccccc3SCc3c2ccc(F)c3F)[C@@H]2COCCN12 [Baloxavir, (R)-12-((S)-7,8-Difluoro-6,11-dihydrodibenzo[b,e]thiepin-11-yl)-7-hydroxy-3,4,12,12a-tetrahydro-1H-[1,4]oxazino[3,4-c]pyrido[2,1-f][1,2,4]triazine-6,8-dione] | 0.34 ± 0.02 | 0.019 ± 0.006 µM |  |  |  | threefold | +12.72 ± 0.18 °C | ~13 | +6 °C | 68 fold
4 | O=C(O)/C(O)=C/C(=O)C1(Cc2ccc(Cl)cc2)CCN(Cc2ccccc2)CC1 [L-742,001, (Z)-4-{1-benzyl-4-[(4-chlorophenyl)methyl]-piperidin-4-yl}-2-hydroxy-4-oxobut-2-enoic acid] | 0.65 ± 0.03 | 0.6 µM and 0.614 µM |  |  |  | 1.5 fold |  |  | +4 °C | twofold

— publication PMC11067750, “Biophysical and structural study of La Crosse virus endonuclease inhibition for the development of new antiviral options” (IUCrJ, 2024)
